In ChEMBL document CHEMBL4219254, “Harnessing biosynthesis and quantitative NMR for late stage functionalization of lead molecules: Application to the M1 positive allosteric modulator (PAM) program” (Bioorg Med Chem Lett, 2018):

Columns and labels:
[1] = Permeability in RRCK cells; assay type: ADME, cell-based, Canis lupus familiaris, MDCKII-LE; conditions: dog, MDCK; read-out: permeability
[2] = Drug level in hamster liver microsomes treated with N-((3R,4S)-3-hydroxytetrahydro-2H-pyran-4-yl)-1-(4-(1-methyl-1H-pyrazol-3-yl)benzyl)-1H-pyrrolo[3,2-b]pyridine-3-carboxamide at 20 uM by UHPLC-UV-HRMS analysis; assay type: ADME, microsome; conditions: cricetinae
[3] = Drug metabolism in dexamethasone-induced rat liver microsomes assessed as formation of N-((3R,4S)-2,3-dihydroxytetrahydro-2H-pyran-4-yl)-5-methyl-4-(4-(thiazol-4-yl)benzyl)picolinamide at 20 uM after 60 mins by UHPLC-UV-HRMS analysis; assay type: ADME, microsome; conditions: 1 h
[4] = Drug metabolism in dexamethasone-induced rat liver microsomes assessed as formation of 4-(hydroxy(4-(thiazol-4-yl)phenyl)methyl)-N-((3R,4S)-3-hydroxytetrahydro-2H-pyran-4-yl)-5-methylpicolinamide at 20 uM after 60 mins by UHPLC-UV-HRMS analysis; assay type: ADME, microsome; conditions: 1 h
[5] = molecular target: T1, Muscarinic acetylcholine receptor M1 (Homo sapiens, UniProt P11229); assay: Positive allosteric modulation of human muscarinic M1 receptor expressed in CHO cells assessed as increase in ACh-induced intracellular calcium level preincubated for 10 mins followed by ACh addition measured every 2 secs for 80 secs by Fluo-4 dye-based FLIPR assay; assay type: functional, cell-based
T1 sequence (P11229 whole entry): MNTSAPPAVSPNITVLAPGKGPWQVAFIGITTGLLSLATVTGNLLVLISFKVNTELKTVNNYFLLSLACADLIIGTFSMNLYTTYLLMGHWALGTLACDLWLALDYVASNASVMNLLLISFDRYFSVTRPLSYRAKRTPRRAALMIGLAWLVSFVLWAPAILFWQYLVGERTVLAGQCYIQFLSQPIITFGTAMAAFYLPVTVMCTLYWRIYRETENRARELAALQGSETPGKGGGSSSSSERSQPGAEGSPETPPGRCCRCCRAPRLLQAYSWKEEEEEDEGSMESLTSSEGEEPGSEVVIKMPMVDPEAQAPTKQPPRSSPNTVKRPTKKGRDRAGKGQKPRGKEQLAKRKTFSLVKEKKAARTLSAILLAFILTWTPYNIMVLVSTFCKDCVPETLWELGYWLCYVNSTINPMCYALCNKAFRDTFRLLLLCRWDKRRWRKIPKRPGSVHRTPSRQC

[6] = Drug level in rat liver microsomes treated with N-((3R,4S)-3-hydroxytetrahydro-2H-pyran-4-yl)-5-methyl-1-(4-(1-methyl-1H-pyrazol-3-yl)benzyl)-1H-pyrrolo[3,2-b]pyridine-3-carboxamide at 20 uM after 70 mins by UHPLC-UV-HRMS analysis; assay type: ADME, microsome
[7] = Intrinsic clearance in human liver microsomes; assay type: ADME, microsome; conditions: read-out: CLH
MDR1 = assay: Efflux ratio of permeability in MDCK cells expressing MDR1; assay type: ADME, cell-based, Canis lupus familiaris; conditions: dog
[8] = Drug level in rabbit liver microsomes treated with 4-(4-(1H-pyrazol-1-yl)benzyl)-N-((3R,4S)-3-hydroxytetrahydro-2H-pyran-4-yl)-5-methylpicolinamide at 20 uM after 60 mins by UHPLC-UV-HRMS analysis; assay type: ADME, Oryctolagus cuniculus, microsome
[9] = Drug level in guinea pig liver microsomes treated with 1-(4-(1H-pyrazol-1-yl)benzyl)-N-((1S,2S)-2-hydroxycyclohexyl)-1H-pyrrolo[3,2-b]pyridine-3-carboxamide at 20 uM after 75 mins by UHPLC-UV-HRMS analysis; assay type: ADME, Cavia porcellus, microsome; conditions: 1.25 h
[10] = Drug level in rabbit liver microsomes treated with 5-(4-(1H-pyrazol-1-yl)benzyl)-N-((1S,2S)-2-hydroxycyclohexyl)-1,6-dimethyl-2-oxo-1,2-dihydropyridine-3-carboxamide at 20 uM after 60 mins by UHPLC-UV-HRMS analysis; assay type: ADME, Oryctolagus cuniculus, microsome
[11] = Drug metabolism in rabbit liver microsomes assessed as formation of 5-(4-(1H-pyrazol-1-yl)benzyl)-N-((1S,2S)-2-hydroxycyclohexyl)-6-(hydroxymethyl)-1-methyl-2-oxo-1,2-dihydropyridine-3-carboxamide at 20 uM after 60 mins by UHPLC-UV-HRMS analysis; assay type: ADME, Oryctolagus cuniculus, microsome
[12] = Drug metabolism in rabbit liver microsomes assessed as formation of 5-(4-(1H-pyrazol-1-yl)benzyl)-N-((1S,2S)-2,4-dihydroxycyclohexyl)-1,6-dimethyl-2-oxo-1,2-dihydropyridine-3-carboxamide at 20 uM after 60 mins by UHPLC-UV-HRMS analysis; assay type: ADME, Oryctolagus cuniculus, microsome
[13] = Drug metabolism in rabbit liver microsomes assessed as formation of 5-(4-(1H-pyrazol-1-yl)benzyl)-N-((1S,2S)-2,5-dihydroxycyclohexyl)-6-methyl-2-oxo-1,2-dihydropyridine-3-carboxamide at 20 uM after 60 mins by UHPLC-UV-HRMS analysis; assay type: ADME, Oryctolagus cuniculus, microsome
[14] = Drug metabolism in rabbit liver microsomes assessed as formation of 5-(4-(1H-pyrazol-1-yl)benzyl)-N-((1S,2S)-2,4-dihydroxycyclohexyl)-6-(hydroxymethyl)-1-methyl-2-oxo-1,2-dihydropyridine-3-carboxamide at 20 uM after 60 mins by UHPLC-UV-HRMS analysis; assay type: ADME, Oryctolagus cuniculus, microsome
[15] = Drug level in dexamethasone-induced rat liver microsomes treated with N-((3R,4S)-3-hydroxytetrahydro-2H-pyran-4-yl)-5-methyl-4-(4-(thiazol-4-yl)benzyl)picolinamide at 20 uM after 60 mins by UHPLC-UV-HRMS analysis; assay type: ADME, microsome; conditions: 1 h
[16] = Drug metabolism in rabbit liver microsomes assessed as formation of 4-(4-(1H-pyrazol-1-yl)benzyl)-5-(hydroxymethyl)-N-((3R,4S)-3-hydroxytetrahydro-2H-pyran-4-yl)picolinamide at 20 uM after 60 mins by UHPLC-UV-HRMS analysis; assay type: ADME, Oryctolagus cuniculus, microsome
[17] = Drug metabolism in rabbit liver microsomes assessed as formation of 4-(4-(4-hydroxy-1H-pyrazol-1-yl)benzyl)-N-((3R,4S)-3-hydroxytetrahydro-2H-pyran-4-yl)-5-methylpicolinamide at 20 uM after 60 mins by UHPLC-UV-HRMS analysis; assay type: ADME, Oryctolagus cuniculus, microsome
[18] = Drug metabolism in rabbit liver microsomes assessed as formation of 4-(4-(1H-pyrazol-1-yl)benzyl)-N-((3R,4S)-2,3-dihydroxytetrahydro-2H-pyran-4-yl)-5-methylpicolinamide at 20 uM after 60 mins by UHPLC-UV-HRMS analysis; assay type: ADME, Oryctolagus cuniculus, microsome
[19] = Drug metabolism in rabbit liver microsomes assessed as formation of 4-(4-(1H-pyrazol-1-yl)benzyl)-N-((4S,5R)-2,5-dihydroxytetrahydro-2H-pyran-4-yl)-5-methylpicolinamide at 20 uM after 60 mins by UHPLC-UV-HRMS analysis; assay type: ADME, Oryctolagus cuniculus, microsome
[20] = Drug metabolism in rabbit liver microsomes assessed as formation of 4-((4-(1H-pyrazol-1-yl)phenyl)(hydroxy)methyl)-N-((3R,4S)-3-hydroxytetrahydro-2H-pyran-4-yl)-5-methylpicolinamide at 20 uM after 60 mins by UHPLC-UV-HRMS analysis; assay type: ADME, Oryctolagus cuniculus, microsome
[21] = Drug metabolism in rabbit liver microsomes assessed as formation of 4-(4-(1H-pyrazol-1-yl)benzyl)-5-methyl-N-((2R,3S)-1,2,5-trihydroxypentan-3-yl)picolinamide at 20 uM after 60 mins by UHPLC-UV-HRMS analysis; assay type: ADME, Oryctolagus cuniculus, microsome

Structure (SMILES): Cc1ccc2c(n1)c(C(=O)N[C@H]1CCOC[C@@H]1O)cn2Cc1ccc(-c2ccn(C)n2)cc1
- Papp [1]: 21 ×10⁻⁶ cm/s

Structure (SMILES): O=C(N[C@H]1CCCC[C@@H]1O)c1cn(Cc2ccc(-n3cccn3)cc2)c2cccnc12
- Papp [1]: 16.2 ×10⁻⁶ cm/s

Structure (SMILES): O=C(N[C@H]1CCOC[C@@H]1O)c1cn(Cc2ccc(-c3cc[nH]n3)cc2)c2cccnc12
- Drug metabolism [2]: Metabolite_Detected

Structure (SMILES): Cc1cnc(C(=O)N[C@H]2CCOC[C@@H]2O)cc1Cc1ccc(-c2cscn2)cc1
- Drug metabolism [3]: Metabolite_Detected
- Drug metabolism [4]: Metabolite_Detected

Structure (SMILES): Cn1ccc(-c2ccc(Cn3cc(C(=O)N[C@H]4CCOC[C@@H]4O)c4nc(CO)ccc43)cc2)n1
- EC50 [5]: 99 nM
- Drug metabolism [6]: Metabolite_Detected

Structure (SMILES): O=C(N[C@H]1CCOC[C@@H]1O)c1cc(Cc2ccc(-n3cccn3)cc2)c(CO)cn1
- EC50 [5]: 338 nM
- CLint scaled [7]: < 8 mL/min/kg
- Papp [1]: 4.6 ×10⁻⁶ cm/s
- efflux ratio (MDR1): 15.9
- Drug metabolism [8]: Metabolite_Detected

Structure (SMILES): Cn1ccc(-c2ccc(Cn3cc(C(=O)N[C@H]4CC(O)OC[C@@H]4O)c4ncccc43)cc2)n1 (some centres not stated)
- EC50 [5]: > 207 nM
- Drug metabolism [2]: Metabolite_Detected

Structure (SMILES): Cn1ccc(-c2ccc(Cn3cc(C(=O)N[C@H]4CCOC[C@@H]4O)c4nc(C=O)ccc43)cc2)n1
- EC50 [5]: 184 nM
- Drug metabolism [6]: Metabolite_Detected

Structure (SMILES): O=C(N[C@H]1CCCC[C@@H]1O)c1cn(Cc2ccc([N+]3([O-])C=CC=N3)cc2)c2cccnc12 (some centres not stated)
- EC50 [5]: 34 nM
- Drug metabolism [9]: Metabolite_Detected

Structure (SMILES): Cc1cnc(C(=O)N[C@H]2CCOC[C@@H]2O)cc1Cc1ccc(-n2cc(O)cn2)cc1
- EC50 [5]: 70 nM
- Drug metabolism [8]: Metabolite_Detected

Structure (SMILES): Cn1c(CO)c(Cc2ccc(-n3cccn3)cc2)cc(C(=O)N[C@H]2CCCC[C@@H]2O)c1=O
- EC50 [5]: 40 nM
- Drug metabolism [10]: Metabolite_Detected

Structure (SMILES): Cc1c(Cc2ccc(-n3cccn3)cc2)cc(C(=O)N[C@H]2CCCC[C@@H]2O)c(=O)n1C
- efflux ratio (MDR1): 2.7
- Drug metabolism [11]: Metabolite_Detected
- Drug metabolism [12]: Metabolite_Detected
- Drug metabolism [13]: Metabolite_Detected
- Drug metabolism [14]: Metabolite_Detected

Structure (SMILES): Cc1cnc(C(=O)N[C@H]2CC(O)OC[C@@H]2O)cc1Cc1ccc(-n2cccn2)cc1 (some centres not stated)
- EC50 [5]: > 3000 nM
- Drug metabolism [8]: Metabolite_Detected

Structure (SMILES): Cc1cnc(C(=O)N[C@H]2CCOC(O)[C@@H]2O)cc1Cc1ccc(-n2cccn2)cc1 (some centres not stated)
- EC50 [5]: 511 nM
- Drug metabolism [8]: Metabolite_Detected

Structure (SMILES): Cc1cnc(C(=O)N[C@@H](CCO)[C@@H](O)CO)cc1Cc1ccc(-n2cccn2)cc1
- EC50 [5]: > 300 nM
- Drug metabolism [8]: Metabolite_Detected

Structure (SMILES): O=C(N[C@H]1CC(O)CC[C@@H]1O)c1cn(Cc2ccc(-n3cccn3)cc2)c2cccnc12 (some centres not stated)
- EC50 [5]: > 72 nM
- Drug metabolism [9]: Metabolite_Detected

Structure (SMILES): Cc1cnc(C(=O)N[C@H]2CCOC(O)[C@@H]2O)cc1Cc1ccc(-c2cscn2)cc1 (some centres not stated)
- EC50 [5]: 162 nM
- Drug metabolism [15]: Metabolite_Detected

Structure (SMILES): Cc1c(Cc2ccc(-n3cccn3)cc2)cc(C(=O)N[C@H]2CCC(O)C[C@@H]2O)c(=O)n1C (some centres not stated)
- EC50 [5]: 63 nM
- Drug metabolism [10]: Metabolite_Detected

Structure (SMILES): Cc1[nH]c(=O)c(C(=O)N[C@H]2CC(O)CC[C@@H]2O)cc1Cc1ccc(-n2cccn2)cc1 (some centres not stated)
- EC50 [5]: 12 nM
- Drug metabolism [10]: Metabolite_Detected

Structure (SMILES): O=C(N[C@H]1C(O)CCC[C@@H]1O)c1cn(Cc2ccc(-n3cccn3)cc2)c2cccnc12 (some centres not stated)
- EC50 [5]: > 249 nM
- Drug metabolism [9]: Metabolite_Detected

Structure (SMILES): Cc1cnc(C(=O)N[C@H]2CCOC[C@@H]2O)cc1Cc1ccc(-n2cccn2)cc1
- Drug metabolism [16]: Metabolite_Detected
- Drug metabolism [17]: Metabolite_Detected
- Drug metabolism [18]: Metabolite_Detected
- Drug metabolism [19]: Metabolite_Detected
- Drug metabolism [20]: Metabolite_Detected
- Drug metabolism [21]: Metabolite_Detected

Structure (SMILES): Cn1c(CO)c(Cc2ccc(-n3cccn3)cc2)cc(C(=O)N[C@H]2CCC(O)C[C@@H]2O)c1=O (some centres not stated)
- EC50 [5]: 177 nM
- Drug metabolism [10]: Metabolite_Detected

Structure (SMILES): Cn1ccc(-c2ccc(Cn3cc(C(=O)N[C@H]4CCOC(O)[C@@H]4O)c4ncccc43)cc2)n1 (some centres not stated)
- EC50 [5]: > 257 nM
- Drug metabolism [2]: Metabolite_Detected

Structure (SMILES): Cc1cnc(C(=O)N[C@H]2CCOC[C@@H]2O)cc1C(O)c1ccc(-n2cccn2)cc1 (stereo in doubt; 11a)
- EC50 [5]: > 1000 nM
- Drug metabolism [8]: Metabolite_Detected

Structure (SMILES): Cc1cnc(C(=O)N[C@H]2CCOC[C@@H]2O)cc1C(O)c1ccc(-n2cccn2)cc1 (stereo in doubt; 11b)
- EC50 ([5]; cho): > 1000 nM

Structure (SMILES): Cc1cnc(C(=O)N[C@H]2CCOC[C@@H]2O)cc1C(O)c1ccc(-c2cscn2)cc1 (stereo in doubt; 14a)
- EC50 [5]: > 4150 nM
- Drug metabolism [15]: Metabolite_Detected

Structure (SMILES): Cc1cnc(C(=O)N[C@H]2CCOC[C@@H]2O)cc1C(O)c1ccc(-c2cscn2)cc1 (stereo in doubt; 14b)
- EC50 [5]: > 1100 nM

Structure (SMILES): O=C(N[C@H]1CCC(O)C[C@@H]1O)c1cn(Cc2ccc(-n3cccn3)cc2)c2cccnc12 (stereo in doubt; 20a)
- EC50 [5]: 167 nM
- Drug metabolism [9]: Metabolite_Detected

Structure (SMILES): O=C(N[C@H]1CCC(O)C[C@@H]1O)c1cn(Cc2ccc(-n3cccn3)cc2)c2cccnc12 (stereo in doubt; 20b)
- EC50 [5]: 16 nM
